What all share (format): functional
For assay [1], the system named is Mycosphaerella. Put plainly: Antimicrobial activity against Mycosphaerella melonis at 200 ppm after 4 days at 28 degC.
In assay [2] the test system is Pyrenophora graminea. Kind of assay: Antimicrobial activity against Pyrenophora graminea at 200 ppm after 4 days at 28 degC.
Assay [3] has as its system Alternaria. Kind of assay: Antimicrobial activity against Alternaria kikuchiana at 200 ppm after 4 days at 28 degC.
The test system of assay [4] is Venturia inaequalis. Put plainly: Antimicrobial activity against Venturia inaequalis at 200 ppm after 11 days at 18 degC.
In assay [5] the test system is Rhynchosporium secalis. Kind of assay: Antimicrobial activity against Rhynchosporium secalis at 200 ppm after 11 days at 18 degC.
The next assay has as its system Rhizoctonia solani. Put plainly: Prevention of Rhizoctonia solani-mediated sheath blight of rice disease at 500 ppm after 4 days at 28 degC by Pot test.
In a further assay the test system is Blumeria graminis. Put plainly: Prevention of Erysiphe graminis-mediated powdery mildew of wheat disease at 500 ppm after 10 days at 22 deg C under fluorescent lamp by Pot test.
A further assay deals with Pythium aphanidermatum. Kind of assay: Prevention of Pythium aphanidermatum-mediated damping off of cucumber disease at 500 ppm/20 mL per pot after 14 days at 25 degC under green house by Pot test.
Assay [6] deals with Venturia inaequalis. Kind of assay: Prevention of Venturia inaequalis-mediated scab of apple disease at 500 ppm by Pot test.
Assay [7] deals with Mycosphaerella. Kind of assay: Antimicrobial activity against Mycosphaerella melonis at 100 ppm after 4 days at 28 degC.
The test system of assay [8] is Pyrenophora graminea. Put plainly: Antimicrobial activity against Pyrenophora graminea at 100 ppm after 4 days at 28 degC.
Assay [9] relates to Alternaria. Kind of assay: Antimicrobial activity against Alternaria kikuchiana at 100 ppm after 4 days at 28 degC.
Assay [10] has as its system Venturia inaequalis. Kind of assay: Antimicrobial activity against Venturia inaequalis at 100 ppm after 11 days at 18 degC.
Assay [11] concerns Rhynchosporium secalis. Put plainly: Antimicrobial activity against Rhynchosporium secalis at 100 ppm after 11 days at 18 degC.
Assay [12] deals with Mycosphaerella. Put plainly: Antimicrobial activity against Mycosphaerella melonis at 50 ppm after 4 days at 28 degC.
The subject of assay [13] is Pyrenophora graminea. Kind of assay: Antimicrobial activity against Pyrenophora graminea at 50 ppm after 4 days at 28 degC.
Assay [14] concerns Alternaria. Kind of assay: Antimicrobial activity against Alternaria kikuchiana at 50 ppm after 4 days at 28 degC.
In assay [15] the test system is Venturia inaequalis. Kind of assay: Antimicrobial activity against Venturia inaequalis at 50 ppm after 11 days at 18 degC.
For assay [16], the system named is Rhynchosporium secalis. Kind of assay: Antimicrobial activity against Rhynchosporium secalis at 50 ppm after 11 days at 18 degC.
Assay [17] concerns P388. Kind of assay: Cytotoxicity against mouse P388 cells assessed as cell growth inhibitory ratio at 10 ug/mL after 48 hrs relative to control. The arrangement: scale not given: the % may be the effect or the level left.
Assay [18] relates to P388. Put plainly: Cytotoxicity against mouse P388 cells assessed as cell growth inhibitory ratio at 1 ug/mL after 48 hrs relative to control. On the set-up: scale not given: the % may be the effect or the level left.
For assay [19], the system named is P388. Put plainly: Cytotoxicity against mouse P388 cells assessed as cell growth inhibitory ratio at 0.1 ug/mL after 48 hrs relative to control. On the set-up: scale not given: the % may be the effect or the level left.

The structures appear in SMILES notation.

`O=C1C[C@@H]2CCCC[C@H](O)[C@@H]2O1`: the Activity in the assay with Mycosphaerella [1], with Pyrenophora graminea [2], in the assay on Alternaria [3], with Venturia inaequalis [4], in the assay with Rhynchosporium secalis [5] and in the assay on Rhizoctonia solani was 0% each time. Moreover, the Activity came to 90% with Blumeria graminis; 0% with Pythium aphanidermatum; 0% with Venturia inaequalis [6]; 0% in the assay with Mycosphaerella [7]; 0% in the assay with Pyrenophora graminea [8]; 0% with Alternaria [9]. The Activity in the assay with Venturia inaequalis [10], in the assay on Rhynchosporium secalis [11], in the assay on Mycosphaerella [12], in the assay on Pyrenophora graminea [13], with Alternaria [14] and with Venturia inaequalis [15] was 0% in each case. The Activity in the assay with Rhynchosporium secalis [16] is reported as 0%.
As to `C=C1C(=O)O[C@H]2CC[C@@H](C)CC[C@@H]12`, the Activity turned out to be 101% in the assay with P388 [17]; 69% in the assay with P388 [18]; 38% with P388 [19]; 0% in the assay on Rhizoctonia solani; 0% with Blumeria graminis; 70% with Pythium aphanidermatum. The Activity with Venturia inaequalis [6] is 0%.
For `CC1=C2CCCCC[C@@H]2OC1=O`, the Activity in the assay with P388 [17] is recorded as 43%; with P388 [18] it was 4%; with P388 [19] it was 7%.
With `C=C1C(=O)O[C@H]2CC[C@H](C)CC[C@@H]12`, the Activity was determined as 102% in the assay with P388 [17]; 50% with P388 [18]; 15% in the assay with P388 [19]; 0% in the assay with Rhizoctonia solani; 0% with Blumeria graminis; 100% in the assay with Pythium aphanidermatum. The compound further gave an Activity with Venturia inaequalis [6] of 0%.
For the compound `C=C1C(=O)O[C@H]2CCCCC[C@@H]12`, the Activity is given as 102% in the assay with P388 [17]; 76% in the assay on P388 [18]; 9% in the assay on P388 [19]; 0% with Rhizoctonia solani; 0% with Blumeria graminis; 0% in the assay with Pythium aphanidermatum. Moreover, in the assay on Venturia inaequalis [6], the Activity turned out to be 90%.
Consider `C=C1C(=O)O[C@H]2[C@@H](O)CCCC[C@@H]12`, for which the Activity with P388 [17] is given as 100%; with P388 [18], 40%; in the assay on P388 [19], 11%; with Mycosphaerella [1] it was 100%; in the assay on Pyrenophora graminea [2], 50%; with Alternaria [3], 40%. In addition, the Activity in the assay with Venturia inaequalis [4] was 0%; in the assay on Rhynchosporium secalis [5], 100%; in the assay on Rhizoctonia solani, 50%; in the assay on Blumeria graminis it was 50%; with Pythium aphanidermatum it was 100%; with Venturia inaequalis [6], 0%. In addition, the Activity worked out at 80% in the assay on Mycosphaerella [7]; 0% in the assay with Pyrenophora graminea [8]; 20% in the assay on Alternaria [9]; 50% in the assay with Venturia inaequalis [10]; 60% in the assay with Rhynchosporium secalis [11]; 70% in the assay with Mycosphaerella [12]. The Activity came to 0% with Pyrenophora graminea [13], 0% with Alternaria [14] and 30% in the assay on Rhynchosporium secalis [16].
Turning to `C=C1C(=O)O[C@H]2[C@@H](OC(C)=O)CCCC[C@@H]12`, the Activity is given as 102% in the assay on P388 [17]; 21% in the assay with P388 [18]; 9% with P388 [19]; 30% in the assay with Rhizoctonia solani; 30% with Blumeria graminis; 100% with Pythium aphanidermatum. For the same compound, in the assay with Venturia inaequalis [6], the Activity was found to be 0%.

These data come from ChEMBL document CHEMBL1146534, “Synthetic method and biological activities of cis-fused alpha-methylene gamma-lactones” (2003).
